What all share (format): biochemical
The target of experiment [1] is FAAH (Mus musculus (Mouse), UniProt O08914). The experiment can be described thus: In vitro competitive activity-based protein profiling (mouse brain membrane fraction or cell lysates), FAAH band. As to conditions: for pIC50: competitive ABPP; for inhibition at 1 µM: read-out: FAAH % Inh 1 μM (mouse). An outline of the steps: (§1)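 Competitive ABPP: proteome 1.0 mg/mL protein + inhibitor, 30 min, 37° C; FP-Rh probe (stock 50 μM in DMSO) added, 30 min, 37° C; SDS quench, SDS-PAGE, fluorescent band intensity read.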
FAAH, sequence (O08914 whole entry): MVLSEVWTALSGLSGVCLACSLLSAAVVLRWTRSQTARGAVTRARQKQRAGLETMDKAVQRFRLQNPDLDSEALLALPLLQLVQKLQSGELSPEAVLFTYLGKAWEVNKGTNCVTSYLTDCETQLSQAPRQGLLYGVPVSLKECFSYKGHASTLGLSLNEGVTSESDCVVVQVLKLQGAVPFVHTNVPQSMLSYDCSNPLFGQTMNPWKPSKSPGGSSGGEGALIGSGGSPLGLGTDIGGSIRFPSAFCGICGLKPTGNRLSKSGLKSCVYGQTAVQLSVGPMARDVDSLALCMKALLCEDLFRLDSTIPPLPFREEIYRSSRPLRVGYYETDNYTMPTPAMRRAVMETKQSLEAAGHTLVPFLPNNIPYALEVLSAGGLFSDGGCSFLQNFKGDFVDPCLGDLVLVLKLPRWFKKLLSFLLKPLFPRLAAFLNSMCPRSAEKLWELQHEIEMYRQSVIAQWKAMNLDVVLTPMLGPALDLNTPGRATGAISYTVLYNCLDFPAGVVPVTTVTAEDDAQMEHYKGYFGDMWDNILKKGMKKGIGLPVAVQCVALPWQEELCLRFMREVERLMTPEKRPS

Experiment [2] addresses ABHD6 (Mus musculus (Mouse), UniProt Q8R2Y0). The experiment can be described thus: In vitro competitive activity-based protein profiling (mouse brain membrane fraction or cell lysates), ABHD6 band. The settings on record: for pIC50: competitive ABPP; for inhibition at 1 µM: read-out: ABHD6 % Inh 1 μM (mouse). An outline of the steps:
as §1

In experiment [3] the target is MAGL (Mus musculus (Mouse), UniProt O35678). The experiment can be described thus: In vitro competitive activity-based protein profiling (mouse brain membrane fraction or cell lysates), MAGL band. The settings on record: for pIC50: competitive ABPP; for inhibition at 1 µM: read-out: MAGL % Inh 1 μM (mouse). How it is done: In Vitro Competitive Activity-Based Protein Profiling.
MAGL, sequence (O35678 whole entry): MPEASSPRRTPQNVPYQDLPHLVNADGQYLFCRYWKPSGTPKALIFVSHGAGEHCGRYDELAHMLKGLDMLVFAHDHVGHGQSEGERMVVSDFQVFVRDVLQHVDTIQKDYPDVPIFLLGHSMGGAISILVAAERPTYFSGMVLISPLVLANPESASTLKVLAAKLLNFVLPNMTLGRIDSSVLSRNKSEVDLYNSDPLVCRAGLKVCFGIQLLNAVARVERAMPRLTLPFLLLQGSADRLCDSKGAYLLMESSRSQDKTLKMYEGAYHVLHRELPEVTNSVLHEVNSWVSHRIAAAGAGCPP
Proteomes (mouse brain membrane fraction or cell lysates) (50 μL, 1.0 mg/mL total protein concentration) were preincubated with varying concentrations of inhibitors at 37° C. After 30 min, FP—Rh (1.0 μL, 50 μM in DMSO) was added and the mixture was incubated for another 30 min at 37° C. Reactions were quenched with SDS loading buffer (50 μL-4×) and run on SDS-PAGE.

pIC50: −log10 of the molar value. Like-named read-outs stand apart in the source and are kept apart here.

ABHD6, sequence (Q8R2Y0 whole entry): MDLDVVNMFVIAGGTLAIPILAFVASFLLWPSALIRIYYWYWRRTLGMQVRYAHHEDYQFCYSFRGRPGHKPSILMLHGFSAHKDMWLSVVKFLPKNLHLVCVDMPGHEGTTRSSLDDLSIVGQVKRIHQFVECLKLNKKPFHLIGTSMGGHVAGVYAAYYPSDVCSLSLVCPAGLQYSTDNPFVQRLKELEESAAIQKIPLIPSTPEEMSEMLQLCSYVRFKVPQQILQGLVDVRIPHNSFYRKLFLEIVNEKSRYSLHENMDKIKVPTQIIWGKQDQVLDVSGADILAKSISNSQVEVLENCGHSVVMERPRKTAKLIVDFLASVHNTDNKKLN

The term pIC50 denotes −log10 of the IC50, conventionally taken in molar units. A lower pIC50 goes with a large IC50. Consider `CCOc1ccccc1CN1CCCC12CCN(C(=O)OC(C(F)(F)F)C(F)(F)F)CC2` [Example 6, 1,1,1,3,3,3-Hexafluoropropan-2-yl 1-(2-ethoxybenzyl)-1,8-diazaspiro[4.5]decane-8-carboxylate], for which the pIC50 in experiment [1] (mouse proteome) was under 6.00; in experiment [2] (mouse proteome), under 6.00; in experiment [3] (mouse proteome), 6.00 to 7.00.
Regarding `O=C(OC(C(F)(F)F)C(F)(F)F)N1CCC2(CCCN2Cc2cccc(OCCN3CCOCC3)c2)CC1` [Example 13, 1,1,1,3,3,3-Hexafluoropropan-2-yl 1-(3-(2-morpholinoethoxy)benzyl)-1,8-diazaspiro[4.5]decane-8-carboxylate], the inhibition at 1 µM is under 25% in experiment [1] (mouse proteome), under 25% in experiment [2] (mouse proteome) and over 75% in experiment [3] (mouse proteome). Besides, the pIC50 in experiment [1] (mouse proteome) is under 6.00; in experiment [2] (mouse proteome), under 6.00; in experiment [3] (mouse proteome) it was 6.00 to 7.00.
Consider `CCN1CCCc2cccc(CN3CCCC34CCN(C(=O)OC(C(F)(F)F)C(F)(F)F)CC4)c21` [Example 158, 1,1,1,3,3,3-Hexafluoropropan-2-yl 1-((1-ethyl-1,2,3,4-tetrahydroquinolin-8-yl)methyl)-1,8-diazaspiro[4.5]decane-8-carboxylate], for which the inhibition at 1 µM is under 25% in experiment [1] (mouse proteome), under 25% in experiment [2] (mouse proteome) and over 75% in experiment [3] (mouse proteome). In addition, the pIC50 was under 6.00 in experiment [1] (mouse proteome), under 6.00 in experiment [2] (mouse proteome) and 6.00 to 7.00 in experiment [3] (mouse proteome).
For `O=C(OC(C(F)(F)F)C(F)(F)F)N1CCC2(CCCN2Cc2ccc(Cl)c(N3CCOCC3)c2)CC1` [Example 131, 1,1,1,3,3,3-Hexafluoropropan-2-yl 1-(4-chloro-3-morpholinobenzyl)-1,8-diazaspiro[4.5]decane-8-carboxylate], the inhibition at 1 µM in experiment [1] (mouse proteome) was under 25%; in experiment [2] (mouse proteome), under 25%; in experiment [3] (mouse proteome), over 75%. Moreover, the negative-log IC50 (pIC50) in experiment [1] (mouse proteome) was under 6.00; in experiment [2] (mouse proteome) it was under 6.00; in experiment [3] (mouse proteome), over 7.00.
With `O=C(OC(C(F)(F)F)C(F)(F)F)N1CCC2(CCN(Cc3ccc4c(c3)OCCO4)C2)CC1` [Example 137, 1,1,1,3,3,3-Hexafluoropropan-2-yl 2-((2,3-dihydrobenzo[b][1,4]dioxin-6-yl)methyl)-2,8-diazaspiro[4.5]decane-8-carboxylate], the inhibition at 1 µM in experiment [1] (mouse proteome) is under 25%; in experiment [2] (mouse proteome), at least 75%; in experiment [3] (mouse proteome), over 75%. Besides, the negative logarithm of the IC50 (pIC50) in experiment [1] (mouse proteome) is under 6.00; in experiment [2] (mouse proteome) it was over 7.00; in experiment [3] (mouse proteome), 6.00 to 7.00.
As to `NC(=O)C1CCN(c2cc(C(F)(F)F)ccc2CN2CCCC23CCN(C(=O)OC(C(F)(F)F)C(F)(F)F)CC3)CC1` [Example 273], the inhibition at 1 µM in experiment [1] (mouse) is under 25%; in experiment [2] (mouse), 25 to 75%; in experiment [3] (mouse), over 75%.
In the case of `CC1(C)CC2(CCN(C(=O)OC(C(F)(F)F)C(F)(F)F)CC2)CN1Cc1cc(CN2CCOCC2)ccc1OC(F)(F)F` [Example 192, 1,1,1,3,3,3-Hexafluoropropan-2-yl 3,3-dimethyl-2-(5-(morpholinomethyl)-2-(trifluoromethoxy)benzyl)-2,8-diazaspiro[4.5]decane-8-carboxylate], the results for the inhibition at 1 µM in experiment [1] (mouse proteome), in experiment [2] (mouse proteome) and in experiment [3] (mouse proteome) were under 25%, 25 to 75% and over 75%, respectively. In addition, the negative-log IC50 (pIC50) in experiment [1] (mouse proteome) is under 6.00; in experiment [2] (mouse proteome) it was 6.00 to 7.00; in experiment [3] (mouse proteome) it was over 7.00.
`O=C(OC(C(F)(F)F)C(F)(F)F)N1CCC2(CCCN2Cc2cccc(N3CC4COCC4C3)c2Cl)CC1` (stereo not drawn) [Example 112, 1,1,1,3,3,3-Hexafluoropropan-2-yl 1-(2-chloro-3-(tetrahydro-1H-furo[3,4-c]pyrrol-5(3H)-yl)benzyl)-1,8-diazaspiro[4.5]decane-8-carboxylate]: the inhibition at 1 µM was under 25% in experiment [1] (mouse proteome), under 25% in experiment [2] (mouse proteome) and over 75% in experiment [3] (mouse proteome). Further, the negative-log IC50 (pIC50) is under 6.00 in experiment [1] (mouse proteome), under 6.00 in experiment [2] (mouse proteome) and over 7.00 in experiment [3] (mouse proteome).
With `CC(C)CN1CCc2cccc(CN3CCC4(CCN(C(=O)OC(C(F)(F)F)C(F)(F)F)CC4)C3)c2C1` [Example 164, 1,1,1,3,3,3-Hexafluoropropan-2-yl 2-((2-isobutyl-1,2,3,4-tetrahydroisoquinolin-8-yl)methyl)-2,8-diazaspiro[4.5]decane-8-carboxylate], the inhibition at 1 µM in experiment [1] (mouse proteome) is under 25%; in experiment [2] (mouse proteome), at least 75%; in experiment [3] (mouse proteome) it was over 75%. Also, the figures for the negative logarithm of the IC50 (pIC50) in experiment [1] (mouse proteome), in experiment [2] (mouse proteome) and in experiment [3] (mouse proteome) were under 6.00, 6.00 to 7.00 and over 7.00, respectively.
Regarding `CCN1CCc2cccc(CN3CCCC34CCN(C(=O)OC(C(F)(F)F)C(F)(F)F)CC4)c2C1` [Example 144, 1,1,1,3,3,3-Hexafluoropropan-2-yl 1-((2-ethyl-1,2,3,4-tetrahydroisoquinolin-8-yl)methyl)-1,8-diazaspiro[4.5]decane-8-carboxylate], the inhibition at 1 µM in experiment [1] (mouse proteome) was under 25%; in experiment [2] (mouse proteome), 25 to 75%; in experiment [3] (mouse proteome) it was over 75%. Also, the pIC50 in experiment [1] (mouse proteome) was under 6.00; in experiment [2] (mouse proteome) it was under 6.00; in experiment [3] (mouse proteome) it was 6.00 to 7.00.
With `O=C(OC(C(F)(F)F)C(F)(F)F)N1CCC2(CCN(Cc3ccc(N4CCCC4)c(C(F)(F)F)c3)C2)CC1` [Example 141, 1,1,1,3,3,3-Hexafluoropropan-2-yl 2-(4-(pyrrolidin-1-yl)-3-(trifluoromethyl)benzyl)-2,8-diazaspiro[4.5]decane-8-carboxylate], the inhibition at 1 µM in experiment [1] (mouse proteome) is under 25%; in experiment [2] (mouse proteome), at least 75%; in experiment [3] (mouse proteome) it was over 75%. Moreover, the negative-log IC50 (pIC50) in experiment [1] (mouse proteome) is under 6.00; in experiment [2] (mouse proteome), 6.00 to 7.00; in experiment [3] (mouse proteome) it was 6.00 to 7.00.
`O=C(O)[C@H]1CCCN(c2cc(CN3CCCC34CCN(C(=O)OC(C(F)(F)F)C(F)(F)F)CC4)cc(C(F)(F)F)c2)C1` [Example 213]: the inhibition at 1 µM is under 25% in experiment [1] (mouse proteome), under 25% in experiment [2] (mouse proteome) and over 75% in experiment [3] (mouse proteome).
Take `O=C(OC(C(F)(F)F)C(F)(F)F)N1CCC2(CCN(Cc3cccc4c3CN(C3CC3)CC4)C2)CC1` [Example 163, 1,1,1,3,3,3-Hexafluoropropan-2-yl 2-((2-cyclopropyl-1,2,3,4-tetrahydroisoquinolin-8-yl)methyl)-2,8-diazaspiro[4.5]decane-8-carboxylate]: the inhibition at 1 µM in experiment [1] (mouse proteome) was under 25%; in experiment [2] (mouse proteome) it was 25 to 75%; in experiment [3] (mouse proteome), over 75%. The negative-log IC50 (pIC50) is under 6.00 in experiment [1] (mouse proteome), 6.00 to 7.00 in experiment [2] (mouse proteome) and over 7.00 in experiment [3] (mouse proteome).
With `O=C(OC(C(F)(F)F)C(F)(F)F)N1CCC2(CCCN2Cc2ccc(C(F)(F)F)cc2N2CCCCCC2)CC1` [Example 95, 1,1,1,3,3,3-Hexafluoropropan-2-yl 1-(2-(azepan-1-yl)-4-(trifluoromethyl)benzyl)-1,8-diazaspiro[4.5]decane-8-carboxylate], the results for the inhibition at 1 µM in experiment [1] (mouse proteome), in experiment [2] (mouse proteome) and in experiment [3] (mouse proteome) were under 25%, under 25% and 25 to 75%, respectively. In addition, the pIC50 was under 6.00 in experiment [1] (mouse proteome), under 6.00 in experiment [2] (mouse proteome) and 6.00 to 7.00 in experiment [3] (mouse proteome).
As for `CC(C)N1CCc2cccc(CN3CCC4(CCN(C(=O)OC(C(F)(F)F)C(F)(F)F)CC4)C3)c2C1` [Example 162, 1,1,1,3,3,3-Hexafluoropropan-2-yl 2-((2-isopropyl-1,2,3,4-tetrahydroisoquinolin-8-yl)methyl)-2,8-diazaspiro[4.5]decane-8-carboxylate], the inhibition at 1 µM in experiment [1] (mouse proteome) was under 25%; in experiment [2] (mouse proteome), at least 75%; in experiment [3] (mouse proteome) it was over 75%. Also, the pIC50 in experiment [1] (mouse proteome) was under 6.00; in experiment [2] (mouse proteome) it was 6.00 to 7.00; in experiment [3] (mouse proteome) it was over 7.00.
On to `O=C(O)[C@@H]1CCCN(c2cc(CN3CCCC34CCN(C(=O)OC(C(F)(F)F)C(F)(F)F)CC4)cc(C(F)(F)F)c2)C1` [Example 212], for which the inhibition at 1 µM is under 25% in experiment [1] (mouse proteome), under 25% in experiment [2] (mouse proteome) and over 75% in experiment [3] (mouse proteome).
With `O=C(OC(C(F)(F)F)C(F)(F)F)N1CCC2(CCCN2Cc2cc(Cl)cc(N3CC4COCC4C3)c2)CC1` (stereo not drawn) [Example 38, 1,1,1,3,3,3-Hexafluoropropan-2-yl 1-(3-chloro-5-(tetrahydro-1H-furo[3,4-c]pyrrol-5(3H)-yl)benzyl)-1,8-diazaspiro[4.5]decane-8-carboxylate], the inhibition at 1 µM is 25 to 75% in experiment [1] (mouse proteome), under 25% in experiment [2] (mouse proteome) and over 75% in experiment [3] (mouse proteome). The negative logarithm of the IC50 (pIC50) was under 6.00 in experiment [1] (mouse proteome), under 6.00 in experiment [2] (mouse proteome) and over 7.00 in experiment [3] (mouse proteome).
In the case of `CS(=O)(=O)N1CCc2cccc(CN3CCC4(CCN(C(=O)OC(C(F)(F)F)C(F)(F)F)CC4)C3)c2C1` [Example 161, 1,1,1,3,3,3-hexafluoropropan-2-yl 2-((2-(methylsulfonyl)-1,2,3,4-tetrahydroisoquinolin-8-yl)methyl)-2,8-diazaspiro[4.5]decane-8-carboxylate], the inhibition at 1 µM in experiment [1] (mouse proteome) was under 25%; in experiment [2] (mouse proteome), at least 75%; in experiment [3] (mouse proteome), over 75%. The values for the pIC50 in experiment [1] (mouse proteome), in experiment [2] (mouse proteome) and in experiment [3] (mouse proteome) were under 6.00, over 7.00 and over 7.00, respectively.

Source of the values: US10030020B2, “Spirocycle compounds and methods of making and using same” (Abide Therapeutics, Inc., priority 2016, dated 2018).
